Assay: Biodistribution experiments in normal mice after i.v. injection
Assay type: in vivo
Conditions: for tissue uptake dose at 10 min / tissue uptake dose at 1 h / tissue uptake dose at 3 h: male, ddY, total radioactivity, Biodistribution of radioactivity; for Biodistribution of radioactivity, Blood / Biodistribution of radioactivity, Bone (Femur) / Biodistribution of radioactivity, Brain / Biodistribution of radioactivity, Heart / Biodistribution of radioactivity, Kidney / Biodistribution of radioactivity, Large-intestine / Biodistribution of radioactivity, Liver / Biodistribution of radioactivity, Lung / Biodistribution of radioactivity, Muscle / Biodistribution of radioactivity, Pancreas / Biodistribution of radioactivity, Small-intestine / Biodistribution of radioactivity, Spleen / F/B ratio (Femur:blood ratio) / Biodistribution of radioactivity, Stomach: mice, mean (SD); for Biodistribution of radioactivity, Stomach: footnote b
Procedure: Experiments with animals were conducted in strict accordance with the Guidelines for the Care and Use of Laboratory Animals of Kanazawa University. The animal experimental protocols used were approved by the Committee on Animal Experimentation of Kanazawa University (Permit Number: AP-132633). Biodistribution experiments were performed after intravenous administration of each diluted tracer solution (37–740 kBq/100 μL) to 6-week-old male ddY mice (27–32 g, Japan SLC, Inc., Hamamatsu, Japan). Four or five mice at each time point after the administration of each compound were sacrificed by decapitation at 10, 60, and 180 min post-injection. Tissues of interest were taken and weighed. Complete left femurs were isolated as representative bone samples, radioactivity was determined using gamma counters (AccuFLEX γ ARC-8001 in the case of ^18F, Hitachi, Ltd.), and background counts and physical decay were corrected during counting.

[1] = mouse, in vivo, iv, Bone (Femur)
[2] = mouse, in vivo, iv, Large-intestine
[3] = mouse, in vivo, iv, Small-intestine

Work on `O=C(O)CC[C@@H](NC(=O)[C@@H](CCC(=O)O)NC(=O)[C@@H](CCC(=O)O)NC(=O)[C@@H](CCC(=O)O)NC(=O)[C@@H](CCC(=O)O)NC(=O)[C@@H](CCC(=O)O)NC(=O)[C@@H](CCC(=O)O)NC(=O)[C@@H](CCC(=O)O)NC(=O)[C@@H](CCC(=O)O)NC(=O)[C@@H](CCC(=O)O)NC(=O)[C@@H](CCC(=O)O)NC(=O)[C@@H](CCC(=O)O)NC(=O)[C@@H](CCC(=O)O)NC(=O)[C@@H](CCC(=O)O)NC(=O)CN1CCN(CC(=O)O)CCN(CC(=O)O)CCN(CC(=O)O)CC1)C(=O)O` [^67Ga-DOTA-(D-Glu)14, metal not drawn] yielded a tissue uptake dose at 10 min (mouse, in vivo, iv, Blood) of 2.09 %ID, a tissue uptake dose at 1 h (mouse, in vivo, iv, Blood) of 0.1 %ID and a tissue uptake dose at 3 h (mouse, in vivo, iv, Blood) of 0.01 %ID. The tissue uptake dose at 10 min [1] was 11 %ID, the tissue uptake dose at 1 h [1] was 11.8 %ID and the tissue uptake dose at 3 h [1] was 12.2 %ID. The tissue uptake dose at 10 min (mouse, in vivo, iv, Brain) was 0.05 %ID, the tissue uptake dose at 1 h (mouse, in vivo, iv, Brain) was 0.01 %ID and the tissue uptake dose at 3 h (mouse, in vivo, iv, Brain) was 0.01 %ID. The tissue uptake dose at 10 min (mouse, in vivo, iv, Heart) was 0.79 %ID, the tissue uptake dose at 1 h (mouse, in vivo, iv, Heart) was 0.08 %ID and the tissue uptake dose at 3 h (mouse, in vivo, iv, Heart) was 0.05 %ID. The tissue uptake dose at 10 min (mouse, in vivo, iv, Kidney) was 13.4 %ID, the tissue uptake dose at 1 h (mouse, in vivo, iv, Kidney) was 10.6 %ID and the tissue uptake dose at 3 h (mouse, in vivo, iv, Kidney) was 6.59 %ID. It also gave a tissue uptake dose at 10 min [2] of 0.42 %ID, a tissue uptake dose at 1 h [2] of 0.18 %ID and a tissue uptake dose at 3 h [2] of 0.25 %ID. The tissue uptake dose at 10 min (mouse, in vivo, iv, Liver) was 0.46 %ID, the tissue uptake dose at 1 h (mouse, in vivo, iv, Liver) was 0.12 %ID and the tissue uptake dose at 3 h (mouse, in vivo, iv, Liver) was 0.08 %ID. It also gave a tissue uptake dose at 10 min (mouse, in vivo, iv, Lung) of 1.65 %ID, a tissue uptake dose at 1 h (mouse, in vivo, iv, Lung) of 0.13 %ID and a tissue uptake dose at 3 h (mouse, in vivo, iv, Lung) of 0.04 %ID. For the same molecule, the tissue uptake dose at 10 min (mouse, in vivo, iv, Muscle) was 0.78 %ID, the tissue uptake dose at 1 h (mouse, in vivo, iv, Muscle) was 0.19 %ID and the tissue uptake dose at 3 h (mouse, in vivo, iv, Muscle) was 0.02 %ID. For the same molecule, the tissue uptake dose at 10 min (mouse, in vivo, iv, Pancreas) was 0.68 %ID, the tissue uptake dose at 1 h (mouse, in vivo, iv, Pancreas) was 0.13 %ID and the tissue uptake dose at 3 h (mouse, in vivo, iv, Pancreas) was 0.06 %ID. The tissue uptake dose at 10 min [3] was 0.37 %ID, the tissue uptake dose at 1 h [3] was 0.22 %ID and the tissue uptake dose at 3 h [3] was 0.15 %ID. The tissue uptake dose at 10 min (mouse, in vivo, iv, Spleen) was 0.37 %ID, the tissue uptake dose at 1 h (mouse, in vivo, iv, Spleen) was 0.06 %ID and the tissue uptake dose at 3 h (mouse, in vivo, iv, Spleen) was 0.03 %ID. For the same molecule, the tissue uptake dose at 10 min (mouse, in vivo, iv, Stomach) was 0.29 %ID, the tissue uptake dose at 1 h (mouse, in vivo, iv, Stomach) was 0.19 %ID and the tissue uptake dose at 3 h (mouse, in vivo, iv, Stomach) was 0.29 %ID. The “Accumulation of radioactivity in bone (in words)” value (mouse, in vivo, iv) was “high accumulation and retention of radioactivity in bone”, the “Clearance from the blood (in words)” value (mouse, in vivo, iv) was “rapid clearance from the blood” and the “Radioactivity in the kidneys (in words)” value (mouse, in vivo, iv) was “retained”.

In the case of `O.O.O=P([O-])([O-])CP(=O)([O-])[O-].[99Tc+4]` [^99mTc-MDP, ^99mTc-methylenediphosphonate, reference compound], the “Biodistribution of radioactivity, Blood” value (i.v., 10 min after injection) is reported as 2.43 (0.10) % injected dose, the “Biodistribution of radioactivity, Bone (Femur)” value (from here on “Biodistribution … (Femur)”) (i.v., 10 min after injection) is reported as 20.76 (1.51) % injected dose and the “Biodistribution of radioactivity, Brain” value (i.v., 10 min after injection) is reported as 0.06 (0.01) % injected dose. For the same molecule, the “Biodistribution of radioactivity, Heart” value (i.v., 10 min after injection) was 0.94 (0.05) % injected dose, the “Biodistribution of radioactivity, Kidney” value (i.v., 10 min after injection) was 10.44 (1.56) % injected dose and the “Biodistribution of radioactivity, Large-intestine” value (“Biodistribution … Large-intestine” below) (i.v., 10 min after injection) was 0.61 (0.20) % injected dose. The “Biodistribution of radioactivity, Liver” value (i.v., 10 min after injection) was 0.61 (0.02) % injected dose, the “Biodistribution of radioactivity, Lung” value (i.v., 10 min after injection) was 1.80 (0.16) % injected dose and the “Biodistribution of radioactivity, Muscle” value (i.v., 10 min after injection) was 0.57 (0.09) % injected dose. For the same molecule, the “Biodistribution of radioactivity, Pancreas” value (“Biodistribution … Pancreas” for short) (i.v., 10 min after injection) was 0.77 (0.10) % injected dose, the “Biodistribution of radioactivity, Small-intestine” value (shortened to “Biodistribution … Small-intestine”) (i.v., 10 min after injection) was 0.69 (0.15) % injected dose and the “Biodistribution of radioactivity, Spleen” value (i.v., 10 min after injection) was 0.54 (0.07) % injected dose. For the same molecule, the “F/B ratio (Femur:blood ratio)” value (i.v., 10 min after injection) was 8.54 (0.57), the “Biodistribution of radioactivity, Stomach” value (shortened to “Biodistribution … Stomach”) (i.v., 10 min after injection) was 0.63 (0.14) % injected dose and the “Biodistribution of radioactivity, Blood” value (i.v., 60 min after injection) was 0.23 (0.04) % injected dose. For the same molecule, the “Biodistribution … (Femur)” value (i.v., 60 min after injection) was 27.92 (3.25) % injected dose, the “Biodistribution of radioactivity, Brain” value (i.v., 60 min after injection) was 0.02 (0.00) % injected dose and the “Biodistribution of radioactivity, Heart” value (i.v., 60 min after injection) was 0.16 (0.02) % injected dose. For the same molecule, the “Biodistribution of radioactivity, Kidney” value (i.v., 60 min after injection) was 2.03 (0.50) % injected dose, the “Biodistribution … Large-intestine” value (i.v., 60 min after injection) was 0.14 (0.04) % injected dose and the “Biodistribution of radioactivity, Liver” value (i.v., 60 min after injection) was 0.27 (0.05) % injected dose. For the same molecule, the “Biodistribution of radioactivity, Lung” value (i.v., 60 min after injection) was 0.30 (0.03) % injected dose, the “Biodistribution of radioactivity, Muscle” value (i.v., 60 min after injection) was 0.13 (0.04) % injected dose and the “Biodistribution … Pancreas” value (i.v., 60 min after injection) was 0.13 (0.02) % injected dose. The “Biodistribution … Small-intestine” value (i.v., 60 min after injection) was 1.55 (1.68) % injected dose, the “Biodistribution of radioactivity, Spleen” value (i.v., 60 min after injection) was 0.14 (0.02) % injected dose and the “F/B ratio (Femur:blood ratio)” value (i.v., 60 min after injection) was 120.87 (9.30). The “Biodistribution … Stomach” value (i.v., 60 min after injection) was 0.70 (0.37) % injected dose, the “Biodistribution of radioactivity, Blood” value (i.v., 180 min after injection) was 0.05 (0.01) % injected dose and the “Biodistribution … (Femur)” value (i.v., 180 min after injection) was 29.03 (2.12) % injected dose. For the same molecule, the “Biodistribution of radioactivity, Brain” value (i.v., 180 min after injection) was 0.01 (0.00) % injected dose, the “Biodistribution of radioactivity, Heart” value (i.v., 180 min after injection) was 0.07 (0.02) % injected dose and the “Biodistribution of radioactivity, Kidney” value (i.v., 180 min after injection) was 1.22 (0.36) % injected dose. The “Biodistribution … Large-intestine” value (i.v., 180 min after injection) was 0.23 (0.07) % injected dose, the “Biodistribution of radioactivity, Liver” value (i.v., 180 min after injection) was 0.16 (0.04) % injected dose and the “Biodistribution of radioactivity, Lung” value (i.v., 180 min after injection) was 0.10 (0.02) % injected dose. For the same molecule, the “Biodistribution of radioactivity, Muscle” value (i.v., 180 min after injection) was 0.06 (0.01) % injected dose, the “Biodistribution … Pancreas” value (i.v., 180 min after injection) was 0.07 (0.01) % injected dose and the “Biodistribution … Small-intestine” value (i.v., 180 min after injection) was 0.26 (0.08) % injected dose. For the same molecule, the “Biodistribution of radioactivity, Spleen” value (i.v., 180 min after injection) was 0.07 (0.01) % injected dose, the “F/B ratio (Femur:blood ratio)” value (i.v., 180 min after injection) was 546.64 (91.83) and the “Biodistribution … Stomach” value (i.v., 180 min after injection) was 0.29 (0.07) % injected dose. The “Accumulation of radioactivity in bone (in words)” value (normal mice, i.v.) was “high accumulation and retention of radioactivity in bone”.
